In patent US12077503B2, “Substituted cyclic amides and their use as herbicides” (FMC CORPORATION, priority 2015, dated 2024):

Key:
Type in all cases: in vivo
Kochia (Kochia scoparia) [1] = assay: Test A preemergence; conditions: Bassia scoparia, pre-emergence, 240 h, 0 to 100 scale where 0 is no effect and 100 is complete control, read-out: Kochia plant response rating
Summary of the method: (§1)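 Seeded soil received test chemicals as a preemergence directed spray, and seedlings at one to two leaves, 2–10 cm tall, received them postemergence, in a non-phytotoxic, surfactant-containing solvent mixture. Pots were held in a greenhouse for approximately 10 d, then rated for injury from 0, no effect, to 100, complete control.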

[2] = tested on: barnyardgrass (Echinochloa crus-galli); assay: Test A preemergence; conditions: Echinochloa crus-galli, pre-emergence, 240 h, 0 to 100 scale where 0 is no effect and 100 is complete control, read-out: Barnyardgrass plant response rating
Summary of the method: as §1

[3] = tested on: giant foxtail (Setaria faberii); assay: Test A preemergence; conditions: Setaria faberi, pre-emergence, 240 h, 0 to 100 scale where 0 is no effect and 100 is complete control, read-out: Foxtail, Giant plant response rating
Summary of the method: as §1

[4] = tested on: pigweed (Amaranthus retroflexus); assay: Test A preemergence; conditions: Amaranthus retroflexus, pre-emergence, 240 h, 0 to 100 scale where 0 is no effect and 100 is complete control, read-out: Pigweed plant response rating
[5] = tested on: ragweed (common ragweed, Ambrosia elatior); assay: Test A preemergence; conditions: Ambrosia artemisiifolia, pre-emergence, 240 h, 0 to 100 scale where 0 is no effect and 100 is complete control, read-out: Ragweed plant response rating
Summary of the method: as §1

[6] = tested on: ryegrass, Italian (Italian ryegrass, Lolium multiflorum); assay: Test A preemergence; conditions: Lolium multiflorum, pre-emergence, 240 h, 0 to 100 scale where 0 is no effect and 100 is complete control, read-out: Ryegrass, Italian plant response rating
Summary of the method: as §1

[7] = tested on: Galium (catchweed bedstraw, Galium aparine); assay: Test A postemergence; conditions: Galium, post-emergence, 240 h, Postemergence, read-out: Galium plant response rating (0 to 100 scale)
Summary of the method: as §1

Kochia (Kochia scoparia) [8] = assay: Test A postemergence; conditions: Bassia scoparia, post-emergence, 240 h, Postemergence, read-out: Kochia plant response rating (0 to 100 scale)
Summary of the method: as §1

[9] = tested on: barnyardgrass (Echinochloa crus-galli); assay: Test A postemergence; conditions: Echinochloa crus-galli, post-emergence, 240 h, Postemergence
Summary of the method: as §1

[10] = tested on: blackgrass (Alopecurus myosuroides); assay: Test A postemergence; conditions: Alopecurus myosuroides, post-emergence, 240 h, Postemergence, read-out: Blackgrass plant response rating (0 to 100 scale)
Summary of the method: as §1

corn (Zea mays) = assay: Test A postemergence; conditions: Zea mays, post-emergence, 240 h, Postemergence, read-out: Corn plant response rating (0 to 100 scale)
Summary of the method: as §1

[11] = tested on: giant foxtail (Setaria faberii); assay: Test A postemergence; conditions: Setaria faberi, post-emergence, 240 h, Postemergence, read-out: Foxtail, Giant plant response rating (0 to 100 scale)
Summary of the method: as §1

[12] = tested on: pigweed (Amaranthus retroflexus); assay: Test A postemergence; conditions: Amaranthus retroflexus, post-emergence, 240 h, Postemergence, read-out: Pigweed plant response rating (0 to 100 scale)
Summary of the method: as §1

[13] = tested on: ragweed (common ragweed, Ambrosia elatior); assay: Test A postemergence; conditions: Ambrosia artemisiifolia, post-emergence, 240 h, Postemergence, read-out: Ragweed plant response rating (0 to 100 scale)
Summary of the method: as §1

[14] = tested on: ryegrass, Italian (Italian ryegrass, Lolium multiflorum); assay: Test A postemergence; conditions: Lolium multiflorum, post-emergence, 240 h, Postemergence, read-out: Ryegrass, Italian plant response rating (0 to 100 scale)
Summary of the method: as §1

[15] = tested on: wheat (Triticum aestivum); assay: Test A postemergence; conditions: Triticum aestivum, post-emergence, 240 h, Postemergence, read-out: Wheat plant response rating (0 to 100 scale)
Summary of the method: as §1

[16] = tested on: barnyardgrass (Echinochloa crus-galli); assay: Test B flooded paddy test; conditions: Echinochloa crus-galli, 250 g ai/ha, Flood; 0 to 100 scale where 0 is no effect and 100 is complete control; read-out: Barnyardgrass plant response rating
Summary of the method: (§2)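 Greenhouse paddy pots with 2-leaf stage plants received compound by direct addition to floodwater 3 cm deep, kept at that level. Scored visually at 13–15 d versus controls (0 no effect; 100 complete control).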

[17] = tested on: ducksalad (Heteranthera limosa); assay: Test B flooded paddy test; conditions: Heteranthera limosa, 250 g ai/ha, Flood; 0 to 100 scale where 0 is no effect and 100 is complete control; read-out: Ducksalad plant response rating
Summary of the method: as §2

rice (Oryra sativa) = assay: Test B flooded paddy test; conditions: Oryza sativa, 250 g ai/ha, Flood; 0 to 100 scale where 0 is no effect and 100 is complete control; read-out: Rice plant response rating
Summary of the method: as §2

[18] = tested on: sedge, umbrella (small-flower umbrella sedge, Cyperus difformis); assay: Test B flooded paddy test; conditions: Cyperus difformis, 250 g ai/ha, Flood; 0 to 100 scale where 0 is no effect and 100 is complete control; read-out: Sedge, Umbrella plant response rating
Summary of the method: as §2

[19] = 125 g ai/ha, preemergence, visual injury rating, approximately 10 d
[20] = 125 g ai/ha, visual rating about 10 d after treatment
[21] = 31 g ai/ha, 0 is no effect, 100 is complete control

What does the source list for CN1C[C@H](c2ccc3c(c2)C(F)(F)C(F)(F)O3)[C@@H](C(=O)Nc2cccc(F)c2F)C1=O [Compound 1271]?
pest or weed control at 31 g/ha (Kochia (Kochia scoparia) [1]; 31 g ai/ha, Preemergence): 30%; pest or weed control at 125 g/ha (Kochia (Kochia scoparia) [1]; [19]): 40%; pest or weed control at 31 g/ha ([2]; 31 g ai/ha, Preemergence): 90%; pest or weed control at 125 g/ha [2, 19]: 90%; pest or weed control at 31 g/ha ([3]; 31 g ai/ha, Preemergence): 80%; pest or weed control at 125 g/ha [3, 19]: 90%; pest or weed control at 31 g/ha ([4]; 31 g ai/ha, Preemergence): 0%; pest or weed control at 125 g/ha [4, 19]: 50%; pest or weed control at 31 g/ha ([5]; 31 g ai/ha, Preemergence): 0%; pest or weed control at 125 g/ha [5, 19]: 20%; pest or weed control at 31 g/ha ([6]; 31 g ai/ha, Preemergence): 70%; pest or weed control at 125 g/ha [6, 19]: 90%; pest or weed control at 125 g/ha [7, 20]: 60%; pest or weed control at 31 g/ha [7, 21]: 60%; pest or weed control at 125 g/ha (Kochia (Kochia scoparia) [8]; [20]): 40%; pest or weed control at 31 g/ha (Kochia (Kochia scoparia) [8]; [21]): 20%; pest or weed control at 125 g/ha ([9]; 125 g ai/ha, visual rating about 10 d after treatment, read-out: Barnyardgrass plant response rating (0 to 100 scale, 0 no effect, 100 complete control)): 60%; pest or weed control at 31 g/ha ([9]; 31 g ai/ha, 0 is no effect, 100 is complete control, read-out: Barnyardgrass plant response rating (0 to 100 scale)): 40%; pest or weed control at 125 g/ha [10, 20]: 30%; pest or weed control at 31 g/ha [10, 21]: 0%; plant injury at 125 g/ha (corn (Zea mays); [20]): 40%; plant injury at 31 g/ha (corn (Zea mays); [21]): 30%; pest or weed control at 125 g/ha [11, 20]: 80%; pest or weed control at 31 g/ha [11, 21]: 20%; pest or weed control at 125 g/ha [12, 20]: 30%; pest or weed control at 31 g/ha [12, 21]: 20%; pest or weed control at 125 g/ha [13, 20]: 0%; pest or weed control at 31 g/ha [13, 21]: 0%; pest or weed control at 125 g/ha [14, 20]: 30%; pest or weed control at 31 g/ha [14, 21]: 0%; plant injury at 125 g/ha [15, 20]: 60%; plant injury at 31 g/ha [15, 21]: 20%; pest or weed control at 250 g/ha [16]: 40%; pest or weed control at 250 g/ha [17]: 90%; pest or weed control at 250 g/ha (rice (Oryra sativa)): 0%; pest or weed control at 250 g/ha [18]: 0%
